Source: patent US20190060308A1, “PHARMACEUTICAL COMPOSITION COMPRISING AN OMEGA-3 FATTY ACID AND A HYDROXY-DERIVATIVE OF A STATIN AND METHODS OF USING SAME” (Amarin Pharmaceuticals Ireland Limited, priority 2012, published 2019)

Key:
[1] = system: human umbilical vein endothelial cells (HUVECs); assay: NO and ONOO^− release from HUVECs exposed to oxLDL, tandem electrochemical nanosensors (Example 3); type: cell-based; conditions: for increase in NO/ONOO^− ratio: versus treatment with oxLDL and vehicle only, statin 1.0 μM
Procedure: An experiment was conducted to test the effects of EPA with rosuvastatin, atorvastatin or o-hydroxyatorvastatin (an active hydroxyl metabolite, “ATM”) on nitric oxide (NO) and peroxynitrite (ONOO^−) release by human umbilical vein epithelial cells (“HUVECs”) following stimulation with oxidized LDL. Nitric oxide bioavailability, peroxynitrite bioavailability, and the ratio of bioavailable nitric oxide to bioavailable peroxynitrite (NO/ONOO^−) serve as useful indicators of endothelial cell function. In particular, the NO/ONOO^− ratio can serve as an indicator of normal epithelial cell function.
Human umbilical vein endothelial cells (HUVECs) were isolated into primary cultures from female donors by Clonetics (San Diego, Calif.) and purchased as proliferating cells. All cell culture donors were healthy, with no pregnancy or prenatal complications. […] The confluent cells (4 to 5×10^5 cells/35 mm dish) were placed with minimum essential medium containing 3 mM L-arginine and 0.1 mM BH4 [(6R)-5,6,7,8-tetrahydrobiopterin]. Before experimental use, the cells (from second or third passage) were rinsed twice with Tyrode-HEPES buffer with 1.8 mM CaCl2).
The effects of EPA treatment were tested in the absence and presence of statins in HUVECs following exposure to oxidized LDL (oxLDL). The oxLDL causes eNOS uncoupling and endothelial dysfunction to reproduced disease-like conditions. Venous blood from healthy normolipidemic volunteers was collected into Na-EDTA (1 mg/mL blood) vacuum tubes after a 12-hour fast. Plasma was immediately separated by centrifugation at 3,000 g for 10 minutes at 4° C. […] The purified LDL was dialyzed for 96 hours against PBS containing 0.3 mM EDTA at 4° C., then stored at 4° C.
A sample of LDL was dialyzed against Tris/NaCl Buffer (50 mM Tris in 0.15 M NaCl, pH 8.0) to remove the EDTA. Tris-NaCl buffer was added to the dialyzed n-LDL to adjust the protein concentration to 30 mg/mL. A 1-mL aliquot of 20 μM CuSO4 was added to 1 mL of dialyzed normal LDL. Oxidation at 37° C. was followed spectrophotometrically (234 nm) over a period of 24 hours until oxidation was complete. The oxLDL was then dialyzed at 4° C. with 4 L of Tris buffer, filtered with a 0.22 μm filter, and stored under nitrogen at 4° C.
Oxidation was monitored by the use of measurements of TBARS. Briefly, LDL was incubated with thiobarbituric acid (0.5 wt/vol, in H2SO4, 50 mM) for 30 minutes at 100° C. […] TBARS concentration was determined as malondialdehyde (MDA) equivalents with the use of an MDA standard curve.
Concurrent measurements of NO and ONOO^− were performed with tandem electrochemical nanosensors combined into one working unit with a total diameter of 200-400 nm. Their design was based on previously developed and chemically modified carbon-fiber technology. Each of the nanosensors was made by depositing a sensing material on the tip of a carbon fiber (length 4 to 5 μm, diameter 100-200 nm). The fibers were sealed with nonconductive epoxy and electrically connected to copper wires with conductive silver epoxy. Conductive films of polymeric Ni(II) tetrakis (3-methoxy-4-hydroxyphenyl) porphyrin and Mn(III) [2.2] paracyclophanylporphyrin were used for the NO and ONOO^− sensors, respectively.
The amperometric method (with a response time of 0.1 ms) provides a quantitative signal (current) that is directly proportional to changes (from basal levels) in NO or ONOO^− concentration. Amperometric measurements were performed with a Gamry III double-channel potentiostat. Basal NO or ONOO^− levels were measured by differential pulse voltammetry in separate experiments.
All measurements of NO and ONOO^− were performed on intact endothelial cells. The NO/ONOO^− nanosensor module was positioned 5±2 μm from the surface of each individual endothelial cell using a computer-controlled M3301 micromanipulator (x-y-z resolution of 0.2 μm) and microscope (both from World Precision Instruments, Berlin, Germany) fitted with a CD camera.

[2] = system: human umbilical vein epithelial cells (HUVECs); assay: NO and ONOO^− release by HUVECs following stimulation with oxidized LDL (Example 2); type: cell-based; conditions: calcium ionophore 1.0 μM, oxLDL 10 mg/dL, EPA 10.0 μM, rosuvastatin or ATM 1.0 μM
Procedure: An experiment was conducted to test the effects of EPA with rosuvastatin or atorvastatin active o-hydroxyl metabolite (“ortho-hydroxy atorvastatin” or “ATM”) on nitric oxide (NO) and peroxynitrite (ONOO^−) release by human umbilical vein epithelial cells (“HUVECs”) following stimulation with oxidized LDL. Nitric oxide bioavailability, peroxynitrite bioavailability, and the ratio of bioavailable nitric oxide to bioavailable peroxynitrite (NO/ONOO^−) serve as useful indicators of endothelial cell function. In particular, the NO/ONOO^− ratio can serve as an indicator of normal epithelial cell function.
In this experiment, HUVECs were equipped with prophyrinic nanosensors and then treated with calcium ionophore (1.0 μM). The HUVECs were then exposed to a solution of oxidized LDL (10 mg/dL).
HUVECs exposed to oxLDL were then treated with EPA alone (10.0 μM), a combination of EPA (10.0 μM) and rosuvastatin (1.0 μM), or a combination of EPA (10.0 μM) and ATM (1.0 μM).

[3] = HUVECs exposed to oxLDL, EPA 10 μM
[4] = compared to treatment with oxLDL and vehicle only, EPA 10 μM

| SMILES | increase in NO/ONOO^− ratio ([1]; EPA 10 μM) [%] | NO [2] [nM] | NO/ONOO^− [2] | ONOO^− [2] [nM] | NO release [1, 3] [nM] | ONOO^− release [1, 3] [nM] | increase in NO release [1, 4] [%] | reduction of ONOO^− release [1, 4] [%] | increase in NO/ONOO^− ratio (in words) ([1]; HUVECs exposed to oxLDL, VAS2870 alone or with EPA and statin) |
| --- | --- | --- | --- | --- | --- | --- | --- | --- | --- |
| CC(C)c1c(C(=O)Nc2ccccc2O)c(-c2ccccc2)c(-c2ccc(F)cc2)n1CC[C@@H](O)C[C@@H](O)CC(=O)O [ATM, o-hydroxyatorvastatin] | 33 | 199 ± 20 | 0.8 | 236 ± 35 | – | – | – | – | – |
| CC/C=C\C/C=C\C/C=C\C/C=C\C/C=C\CCCC(=O)O [EPA, eicosapentaenoic acid] | 41 | 208 ± 32 | 1.0 | 203 ± 21 | 208 ± 32 | 203 ± 21 | 18 | 16 | – |
| c1ccc(Cn2nnc3c(Sc4nc5ccccc5o4)ncnc32)cc1 [VAS2870] | – | – | – | – | – | – | – | – | two-fold |
| CC(C)c1c(C(=O)Nc2ccccc2)c(-c2ccccc2)c(-c2ccc(F)cc2)n1CC[C@@H](O)C[C@@H](O)CC(=O)O [atorvastatin] | 84 | – | – | – | – | – | – | – | – |
| CC(C)c1nc(N(C)S(C)(=O)=O)nc(-c2ccc(F)cc2)c1/C=C/[C@@H](O)C[C@@H](O)CC(=O)O [rosuvastatin] | 21 | 191 ± 33 | 0.8 | 252 ± 39 | – | – | – | – | – |
